In paper PMC2936488 (ACS chemical neuroscience, 2010):

Target: T1, M1 muscarinic acetylcholine receptor (M1 mAChR) (Homo sapiens, UniProt P11229)
T1 sequence (P11229 1-460): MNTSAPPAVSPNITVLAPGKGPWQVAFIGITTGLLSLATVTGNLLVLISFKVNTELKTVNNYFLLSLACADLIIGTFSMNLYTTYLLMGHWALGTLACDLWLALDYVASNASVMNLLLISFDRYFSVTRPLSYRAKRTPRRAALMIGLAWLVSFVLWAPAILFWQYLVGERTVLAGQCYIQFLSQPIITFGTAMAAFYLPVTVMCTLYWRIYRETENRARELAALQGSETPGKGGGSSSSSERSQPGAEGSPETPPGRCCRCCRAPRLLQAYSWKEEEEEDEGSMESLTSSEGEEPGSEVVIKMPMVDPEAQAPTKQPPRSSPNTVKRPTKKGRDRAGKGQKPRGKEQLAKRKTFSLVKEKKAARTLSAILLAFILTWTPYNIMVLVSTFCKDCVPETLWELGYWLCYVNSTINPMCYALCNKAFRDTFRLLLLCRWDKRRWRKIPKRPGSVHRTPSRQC
Assay: intracellular calcium mobilization in M1-CHO cells
Type: cell-based

CCCCC1CCN(CCCN2C(=O)COc3cc(F)ccc32)CC1 [AC260584]
EC50: 146 nM
